The results in this text go back to patent US12655160B2, “KRAS G12D inhibitors” (Mirati Therapeutics, Inc., priority 2020, dated 2026).

Counter-ions that a name gives are not always drawn. Like-named read-outs stand apart in the source and are kept apart here.

Experiment [1] deals with KRas G12D-mediated Phosphorylation of ERK. Kind of experiment: Inhibition of KRas G12D-mediated Phosphorylation of ERK in AGS cells. The class given is cell-based. Particulars: Homo sapiens. Here is the method:
AGS cells (ATCC CRL-1739) expressing G12D were grown in DMEM medium supplemented with 10% fetal bovine serum, 10 mM HEPES, and Penicillin/Streptomycin. Cells were plated in tissue culture treated 96 well plates at a density of 40,000 cells/well and allowed to attach for 12-14 hours. Diluted compounds were then added in a final concentration of 0.5% DMSO. After 3 hours, the medium was removed, 150 μl of 4.0% formaldehyde was added and the plates incubated at room temperature for 20 minutes. The plates were washed with PBS, and permeabilized with 150 μL of ice cold 100% methanol for 10 minutes. Non-specific antibody binding to the plates was blocked using 100 μL Licor blocking buffer (Li-Cor Biotechnology, Lincoln NE) for 1 hour at room temperature.
The amount of phospho-ERK was determined using an antibody specific for the phosphorylated form of ERK and compared to the amount of GAPDH. Primary antibodies used for the detection were added as follows: Phospho-ERK(Cell Signaling cs-9101) diluted 1:500 and GAPDH (Millipore MAB374) diluted 1:5000 in Licor block+0.05% Tween 20. The plates were incubated for 2 hours at room temperature. The plates were washed with PBS+0.05% Tween 20.
Secondary antibodies used to visualize primary antibodies were added as follows: Anti-rabbit-680 diluted 1:1000 and Anti-mouse-800 diluted 1:1000 both in Licor block+0.05% Tween20, and were incubated for 1 hour at room temperature. The plates were washed with PBS+0.05% Tween 20. A 100 μl aliquot of PBS was added to each well and the plates were read on a Li-Cor Odyssey CLX plate reader.
The phospho-ERK(Thr202/Tyr204 signal was normalized to the GAPDH signal for each well and percent of DMSO control values were calculated. IC50 values were generated using a 4-parameter fit of the dose response curve

The target in experiment [2] is T1, KRas G12D (Homo sapiens, UniProt P01116, G12D). The experiment is described as follows: KRas G12D Surface Plasmon Resonance (SPR) Binding Assay. Details: Avidin-tag (so in the source). Conditions: Biacore T200, Biotinylated Avidin-tagged KRAS protein on SA chip, 20 C, 1:1 binding model. Here is the method: This Example illustrates that exemplary compounds of the present invention bind to KRas G12D as measured by surface plasmon resonance (SPR). Briefly, 1 L of 1.05×HBS-Mg buffer (262.5 mM BioUltra Hepes, pH 7.5, 157.5 mM NaCl, 105 mM MgCl2, 0.525 mM TCEP, 0.0305% Brij-35) was prepared and filter sterilized using a 0.22 μm bottle top filter. Approximately 50 mL of 1.05×HBS-Mg buffer was removed and saved for future dilutions. A 50 mL aliquot of DMSO (Sigma Aldrich DMSO Lot. #SHBK2079) was added and continued to stir for 10 minutes, creating the final 1.0×HBS-Mg buffer (250 mM BioUltra Hepes pH 7.5, 150 mM NaCl, 100 mM MgCl2, 0.5 mM TCEP, 0.03% Brij-35). Biacore T200 instrument was primed using 1.0×HBS-Mg buffer before docking a GE Streptavidin (SA) chip and then primed two additional times prior to beginning the immobilization step. All immobilized protein mixtures were created using 3-5 mg/mL Biotinylated Avidin-tagged KRAS protein using the following immobilization settings: SA chip type, 1 flow cells per cycle, 720 second contact time, and 5 μL/min flow rate. Normalization of the detector was also performed during the immobilization step using the GE BiaNormalize solution. All compounds were diluted to 10 mM in 100% DMSO prior to being diluted 20× in 1.05× buffer. Another 10λ dilution was created using 1.0× buffer prior to performing a series of 3× dilutions to create a compound concentration curve using the following assay settings: 20 C analysis temperature, General Settings=10 Hz data collection rate and multi-detection; Assay Steps=all set to LMW kinetics; Cycle Types=LMW kinetics (60 s contact time, 120 s dissociation time, 100 μL/min flow rate, extra wash after injection with 50% DMSO, flow path 1,2,3,4); Flow path detection=2-1, 4-3). Data evaluation was performed using the Biacore T200 Evaluation software and data fit to 1:1 binding model.
In general terms: SPR reads the build-up and loss of mass on a sensor chip optically.
Target sequence in this assay (P01116 1-188 isoform P01116-2 G12D): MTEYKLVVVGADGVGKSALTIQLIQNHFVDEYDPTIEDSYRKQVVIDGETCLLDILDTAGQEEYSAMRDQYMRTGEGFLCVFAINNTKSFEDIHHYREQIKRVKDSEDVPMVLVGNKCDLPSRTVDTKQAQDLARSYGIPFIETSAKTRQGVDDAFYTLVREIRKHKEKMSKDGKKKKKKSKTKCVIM

In experiment [3] the target is T1, KRas G12D. Kind of experiment: KRas G12D Binding Assay (TR-FRET displacement of labeled tracer). Also noted: corresponding to amino acids 1:169, produced at Array BioPharma Inc; biotin (biotinylated). Particulars: TR-FRET displacement of Cy5 labelled tracer, Biotinylated GDP-loaded KRAS G12D (amino acids 1:169), 60 minute incubation at 22° C. In short, it runs like this:
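Biotinylated GDP-loaded KRAS G12D (aa 1:169) was incubated with Cy5 tracer, Eu-streptavidin and compound (2% DMSO) in HEPES pH 7.5, MgCl2, Tween-20, DTT, 60 min at 22° C. TR-FRET ratio gave POC; IC50 from 4-parameter fit at 50 POC.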
Target sequence in this assay (P01116 1-169 isoform P01116-2 G12D): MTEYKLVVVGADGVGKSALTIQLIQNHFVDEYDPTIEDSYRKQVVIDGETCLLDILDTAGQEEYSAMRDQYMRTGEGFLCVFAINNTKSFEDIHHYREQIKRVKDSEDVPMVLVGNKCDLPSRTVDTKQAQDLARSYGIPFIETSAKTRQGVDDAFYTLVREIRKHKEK
In general terms: TR-FRET usually uses a lanthanide donor and a delayed reading to cut background.

The mark [4] stands for this setting: AGS cells expressing G12D, 3 hours, phospho-ERK signal normalized to GAPDH, read-out: IC50.

As a reminder, the IC50 is the midpoint of a concentration-inhibition curve. For orientation: Kd means the concentration at which binding is half-saturated. Low values mean a tighter complex, high ones a looser complex. Consider `CN(C)C1(CNc2nc(OC[C@@]34CCCN3C[C@H](F)C4)nc3c(F)c(-c4cc(O)cc5ccccc45)ncc23)CCC1` [Example 1, 4-(4-(((1-(dimethylamino)cyclobutyl)methyl)amino)-8-fluoro-2-(((2R,7aS)-2-fluorotetrahydro-1H-pyrrolizin-7a(5H)-yl)methoxy)pyrido[4,3-d]pyrimidin-7-yl)naphthalen-2-ol], for which the IC50 in experiment [1] (AGS, 3 h) was determined as 692 nM; on KRas G12D [3], 19.6 nM. The compound further returned a Kd on KRas G12D [2] of 14.7 nM.
Regarding `CC1(CNc2nc(OC[C@@]34CCCN3C[C@H](F)C4)nc3c(F)c(-c4cc(O)cc5ccccc45)ncc23)CNC1` [Example 8, 4-(8-fluoro-2-(((2R,7aS)-2-fluorotetrahydro-1H-pyrrolizin-7a(5H)-yl)methoxy)-4-(((3-methylazetidin-3-yl)methyl)amino)pyrido[4,3-d]pyrimidin-7-yl)naphthalen-2-ol], the IC50 in experiment [1] (setting [4]) was more than 16700 nM; on KRas G12D [3] it was 39.9 nM. The same compound gave a Kd on KRas G12D [2] of 66.8 nM.
`CN(C)C1(CNc2nc(OC[C@@]34CCCN3C[C@H](F)C4)nc3c(F)c(-c4cc(O)cc5ccccc45)ncc23)CCCC1` [Example 7, 4-(4-(((1-(dimethylamino)cyclopentyl)methyl)amino)-8-fluoro-2-(((2R,7aS)-2-fluorotetrahydro-1H-pyrrolizin-7a(5H)-yl)methoxy)pyrido[4,3-d]pyrimidin-7-yl)naphthalen-2-ol bis(2,2,2-trifluoroacetate)]: the IC50 was 711 nM in experiment [1] (setting [4]) and 10 nM at KRas G12D [3]. Besides, binding on KRas G12D [2] was put at a Kd of 12.2 nM.
Turning to `CN(C)C1(CNc2nc(OC[C@]34CCCN3[C@@H](COC(=O)N3CCCCC3)CC4)nc3c(F)c(-c4cccc5cccc(Cl)c45)ncc23)CCC1` [Example 50, ((3R,7aR)-7a-(((7-(8-chloronaphthalen-1-yl)-4-(((1-(dimethylamino)cyclobutyl)methyl)amino)-8-fluoropyrido[4,3-d]pyrimidin-2-yl)oxy)methyl)hexahydro-1H-pyrrolizin-3-yl)methyl piperidine-1-carboxylate], the IC50 in experiment [1] (setting [4]) is 10700 nM; on KRas G12D [3] it was 89.6 nM.
Regarding `C#Cc1cccc2cc(O)cc(-c3ncc4c(NCC5(N(C)C)CCC5)nc(OC[C@@]56CCCN5C[C@H](F)C6)nc4c3F)c12` [Example 52, 4-(4-(((1-(dimethylamino)cyclobutyl)methyl)amino)-8-fluoro-2-(((2R,7aS)-2-fluorotetrahydro-1H-pyrrolizin-7a(5H)-yl)methoxy)pyrido[4,3-d]pyrimidin-7-yl)-5-ethynylnaphthalen-2-ol], the IC50 in experiment [1] (AGS, 3 h) came out at 12 nM; on KRas G12D [3], 0.6 nM. Moreover, binding on KRas G12D [2] was characterised by a dissociation constant (Kd) of 0.04 nM.
For `CN(CC1(N(C)C)CCC1)c1nc(OC[C@@]23CCCN2C[C@H](F)C3)nc2c(F)c(-c3cc(O)cc4cccc(Cl)c34)ncc12` [Example 36, 5-chloro-4-(4-(((1-(dimethylamino)cyclobutyl)methyl)(methyl)amino)-8-fluoro-2-(((2R,7aS)-2-fluorotetrahydro-1H-pyrrolizin-7a(5H)-yl)methoxy)pyrido[4,3-d]pyrimidin-7-yl)naphthalen-2-ol dihydrochloride], the IC50 in experiment [1] (setting [4]) is 3290 nM; at KRas G12D [3], 76.5 nM. At KRas G12D [2], this compound had a Kd of 135 nM.
`CN(C)C1(CNc2nc(OCC34CCCN3CCC4)nc3c(F)c(-c4cccc5cccc(Cl)c45)ncc23)CCC1` [Example 54, 7-(8-chloronaphthalen-1-yl)-N-((1-(dimethylamino)cyclobutyl)methyl)-8-fluoro-2-((tetrahydro-1H-pyrrolizin-7a(5H)-yl)methoxy)pyrido[4,3-d]pyrimidin-4-amine]: the IC50 was more than 16700 nM in experiment [1] (setting [4]) and 79.3 nM at KRas G12D [3].
For `CCc1cccc2cc(O)cc(-c3ncc4c(NCC5(N(C)C)CCC5)nc(OC[C@]56CCCN5[C@@H](COC(=O)N(C)C)CC6)nc4c3F)c12` [Example 43, ((3R,7aR)-7a-(((4-(((1-(dimethylamino)cyclobutyl)methyl)amino)-7-(8-ethyl-3-hydroxynaphthalen-1-yl)-8-fluoropyrido[4,3-d]pyrimidin-2-yl)oxy)methyl)hexahydro-1H-pyrrolizin-3-yl)methyl dimethylcarbamate] the same measures were 53.5 nM and 1.1 nM.
For `CCc1cccc2cc(O)cc(-c3ncc4c(NCC5(N(C)C)CCC5)nc(OC[C@@]56CCCN5[C@H](COC(=O)NC)CC6)nc4c3F)c12` (racemic) [Example 44] the same measures were 220 nM and 0.7 nM.
Consider `NC1(CNc2nc(OC[C@@]34CCCN3C[C@H](F)C4)nc3c(F)c(-c4cc(O)cc5ccccc45)ncc23)CCC1` [Example 29, 4-(4-(((1-aminocyclobutyl)methyl)amino)-8-fluoro-2-(((2R,7aS)-2-fluorotetrahydro-1H-pyrrolizin-7a(5H)-yl)methoxy)pyrido[4,3-d]pyrimidin-7-yl)naphthalen-2-ol bis(2,2,2-trifluoroacetate)], for which the IC50 amounted to 1560 nM in experiment [1] (setting [4]) and 62.8 nM on KRas G12D [3].
